Drawing on patent US20100063035A1, “CARBONIC ANHYDRASE INHIBITORS DERIVATIVES” (Nicox S.A., priority 2006, published 2010), this text covers Ki for 2 compounds.

One test has as its target hCA II (Homo sapiens, UniProt P00918). Kind of test: Carbonic anhydrase inhibition, stopped-flow CO2 hydration assay, isoenzyme CA II.
In a further test the target is hCA IV (Homo sapiens, UniProt P22748). Description: Carbonic anhydrase inhibition, stopped-flow CO2 hydration assay, isoenzyme CA IV.
Another test deals with hCA I (Homo sapiens, UniProt P00915). Description: Carbonic anhydrase inhibition, stopped-flow CO2 hydration assay, isoenzyme CA I.
Chain of hCA I (P00915 whole entry): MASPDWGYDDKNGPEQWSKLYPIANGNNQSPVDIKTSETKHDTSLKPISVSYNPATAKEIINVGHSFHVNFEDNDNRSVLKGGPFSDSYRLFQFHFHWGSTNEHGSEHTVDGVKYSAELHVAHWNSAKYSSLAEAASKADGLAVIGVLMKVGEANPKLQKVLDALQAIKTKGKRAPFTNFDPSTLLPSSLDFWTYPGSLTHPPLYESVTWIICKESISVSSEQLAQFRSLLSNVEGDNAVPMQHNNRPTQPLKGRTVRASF

In general, pKi refers to −log10 of the Ki, conventionally taken in molar units. High values mean a low Ki, low ones a high Ki.

pKi: −log10 of the molar value.

Chain of hCA IV (P22748 19-284 limits assumed): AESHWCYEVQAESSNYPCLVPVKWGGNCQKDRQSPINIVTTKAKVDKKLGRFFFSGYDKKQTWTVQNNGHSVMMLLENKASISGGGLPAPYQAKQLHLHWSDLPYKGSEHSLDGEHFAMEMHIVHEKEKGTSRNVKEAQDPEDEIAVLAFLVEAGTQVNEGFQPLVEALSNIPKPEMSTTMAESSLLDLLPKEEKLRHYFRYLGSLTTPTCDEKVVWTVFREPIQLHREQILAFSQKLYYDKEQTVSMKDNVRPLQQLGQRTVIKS
Experimental for hCA II: (§1) An SX.18MV-R Applied Photophysics stopped flow instrument was used for assaying the CA CO2 hydration activity. […] The buffer solution was constituted by 10 mM HEPES, 0.1 M Na2SO4, and TRIZMA hydrochloride 0.01 M, adjusting the pH solution at 7.5 with NaOH (0.1 M). […] Satured CO2 solution in bidistilled water at 20° C. was used as substrate.
(§2) Stock solutions of inhibitor (1 mM) were prepared with buffer solution with 10-20% (v/v) DMSO, and dilutions up to 0.1 nM. To allow for the formation of the E-1 complex, inhibitor and enzyme solutions were preincubated during 15 min at room temperature prior to assay. Enzyme concentration was 0.1 μM for CA I and II, 10 μM for CA IV. The human CA I and CA II are commercially available, whereas hCA IV (tumor) is cloned isoform.
Each experiment was done in triplicate.
Experimental for hCA IV: as §1, §2
Each experiment was done in triplicate.

In the case of `CCN[C@H]1CC(C)S(=O)(=O)c2sc(S(=O)(=O)NC(=O)CCCCCO[N+](=O)[O-])cc21` (stereo partly drawn) [Ex. 1, (4S-trans)-4-(ethylamino)-5,6-dihydro-6-methyl-4H-thieno[2,3-b]thiopyran-2-sulfonylamido-N((6-nitrooxy)hexanoyl)-7,7-dioxide], the pKi on hCA II is 6.60; at hCA IV, 5.47; on hCA I, 4.82.
Turning to `CCN[C@H]1CC(C)S(=O)(=O)c2sc(S(=O)(=O)NC(=O)OCCCCO[N+](=O)[O-])cc21` (stereo partly drawn) [Ex. 7, (4S-trans)-4-(ethylamino)-5,6-dihydro-6-methyl-4H-thieno[2,3-b]thiopyran-2-sulfonylamido-N-(4-(nitrooxy)butyloxycarbonyl)-7,7-dioxide], the pKi at hCA II is 6.05; at hCA IV, 6.39; at hCA I, 4.37.
